{"source": "patent US20090012156A1", "about": "“Composition comprising polyphenol” (Conopco, Inc. d/b/a Unilever, priority 2007, published 2009)", "tested_on": "2nd order mesenteric artery side branches of Spontaneously Hypertensive Rats (SHR)", "assay": "Reactivity of isolated arteries: dilator effect during contraction induced by 40 mmol/L K+", "design": "species or system rat", "protocol": "Segments of 2nd order mesenteric artery side branches were isolated from 14 weeks old male Spontaneously Hypertensive Rats (SHR). Two stainless-steel wires (diameter 40 μm) were inserted in the lumen of the arterial segments, which were then mounted in organ chambers between an isometric force transducer and a displacement device (Danish Myotechnology by J. P. Trading, Denmark). The organ chambers were filled with Krebs-Ringer bicarbonate solution which was maintained at 37° C. and continuously aerated with 95% O2 and 5% CO2. Before the actual experiments started, arterial segments were stretched to their individual optimal lumen diameter for mechanical performance, i.e. the diameter at which maximal contractile responses to noradrenaline (10 μmol/L) were obtained. In each experiment four second order mesenteric resistance arterial segments from one animal were mounted in individual organ chambers and studied in parallel. […]\nFor the analysis of the acute effects of the mixtures on K+-induced contraction, increasing concentrations of the mixtures (0.1-100 umol/L) were administered on top of the stable contractions and were left in contact with the arterial segments for 5-7 min to make sure that either no effect or a stable effect was reached. […] In this way, the effects of different exposure times to the mixtures (7, 30 and 90 min) on K+-induced contraction, could be evaluated. […]\nActive wall tension (AWT) was calculated by subtracting the resting wall tension.\nAll contractile responses (AWT in the presence of stimuli, solvent and mixes of ingredients) were next expressed as a percentage of the contractile response (AWT) to 10 uM noradrenaline at the end of the normalisation period, i.e. before exposure of the arterial segments to solvent or mixes of ingredients.\nEffects of increasing concentrations of the solvent and of the mixes (0.1 to 100 umol/L) during contractile responses to 40 mmol/L K+, were calculated as % change of the level of pre-contraction. […]"}
{"smiles": "COc1cc(-c2oc3cc(O)cc(O)c3c(=O)c2O)ccc1O", "note": "[isorhamnetin, 3′methoxy-3,4,5,7-tetrahydroxyflavone]", "values": [{"measurement": "EC50", "setting": "Rattus norvegicus, isolated SHR mesenteric resistance arteries pre-contracted with 40 mmol/L K+, effect worked out by comparing mixtures (Plackett-Burman design), corrected for solvent, read-out: EC50 of dilation of the arteries", "result": 3.1, "unit": "µM"}, {"measurement": "maximum dilatation", "setting": "at 100 micromolar of isorhamnetin, isolated SHR mesenteric arteries pre-contracted with 40 mmol/L K+", "result": 94, "unit": "%"}, {"measurement": "influence on the dilation of the arteries", "setting": "at a low concentration, isolated SHR mesenteric arteries, K+-induced contraction", "result": "significant influence on the dilation of the arteries"}]}
